Data on 17 molecules can be found in patent US20240300939A1 (Scorpion Therapeutics, Inc., priority 2021, published 2024).

A word on the Kd: it is a measure of binding affinity in units of concentration. Broadly, the IC50 is the point on the concentration scale where inhibition reaches its midpoint. A high value points to a need for much substance.

For one experiment, the target named is T1, PI3Kα H1047R (Homo sapiens, UniProt P42336, H1047R).
T1 construct: The protein contained a full-length p110-a subunit harboring the H1047R mutation with an N-terminal AviTag
As to the kind of experiment: Surface Plasmon Resonance (SPR) binding, wortmannin-blocked protein. The settings on record: Biacore 8K, protein pre-incubated with 1 μM wortmannin, 25° C. The method, then: SPR experiments were performed on a Biacore 8K instrument. A biotinylated recombinant PI3Kα H1047R protein was used in this study. The protein contained a full-length p110-a subunit harboring the H1047R mutation with an N-terminal AviTag, complexed with a truncated p85-a subunit (amino acid residues 322-694). The protein was first incubated with 1 μM wortmannin for 30 min at RT to covalently block the ATP binding site, then immobilized onto a streptavidin sensor chip by flowing the protein through the sensor chip at typically 20 μg/mL concentration and 2 μL/min flow rate for 1200 seconds. Compound binding affinities were measured in the multi-cycle kinetics mode, at 90 μL/min flow rate with 90 seconds association time and 240 seconds dissociation time. The running buffer contained 50 mM Tris, pH 7.5, 150 mM NaCl, 0.01% Brij35, 1 mM DTT, 1 mM MgCl2, 0.05% Tween-20 and 2% DMSO. Temperature was maintained at 25° C. during experiments.
(In general: Surface plasmon resonance follows binding to a sensor surface in real time, without labels.)

In experiment [1] the test system is pAKT (S473) in T47D cells (PI3Kα H1047R mutation). As to the kind of experiment: HTRF pAKT (S473) in T47D cells. The class given is cell-based. (In TR-FRET formats the signal depends on donor and acceptor labels being close together.)

T1 sequence (P42336 whole entry H1047R): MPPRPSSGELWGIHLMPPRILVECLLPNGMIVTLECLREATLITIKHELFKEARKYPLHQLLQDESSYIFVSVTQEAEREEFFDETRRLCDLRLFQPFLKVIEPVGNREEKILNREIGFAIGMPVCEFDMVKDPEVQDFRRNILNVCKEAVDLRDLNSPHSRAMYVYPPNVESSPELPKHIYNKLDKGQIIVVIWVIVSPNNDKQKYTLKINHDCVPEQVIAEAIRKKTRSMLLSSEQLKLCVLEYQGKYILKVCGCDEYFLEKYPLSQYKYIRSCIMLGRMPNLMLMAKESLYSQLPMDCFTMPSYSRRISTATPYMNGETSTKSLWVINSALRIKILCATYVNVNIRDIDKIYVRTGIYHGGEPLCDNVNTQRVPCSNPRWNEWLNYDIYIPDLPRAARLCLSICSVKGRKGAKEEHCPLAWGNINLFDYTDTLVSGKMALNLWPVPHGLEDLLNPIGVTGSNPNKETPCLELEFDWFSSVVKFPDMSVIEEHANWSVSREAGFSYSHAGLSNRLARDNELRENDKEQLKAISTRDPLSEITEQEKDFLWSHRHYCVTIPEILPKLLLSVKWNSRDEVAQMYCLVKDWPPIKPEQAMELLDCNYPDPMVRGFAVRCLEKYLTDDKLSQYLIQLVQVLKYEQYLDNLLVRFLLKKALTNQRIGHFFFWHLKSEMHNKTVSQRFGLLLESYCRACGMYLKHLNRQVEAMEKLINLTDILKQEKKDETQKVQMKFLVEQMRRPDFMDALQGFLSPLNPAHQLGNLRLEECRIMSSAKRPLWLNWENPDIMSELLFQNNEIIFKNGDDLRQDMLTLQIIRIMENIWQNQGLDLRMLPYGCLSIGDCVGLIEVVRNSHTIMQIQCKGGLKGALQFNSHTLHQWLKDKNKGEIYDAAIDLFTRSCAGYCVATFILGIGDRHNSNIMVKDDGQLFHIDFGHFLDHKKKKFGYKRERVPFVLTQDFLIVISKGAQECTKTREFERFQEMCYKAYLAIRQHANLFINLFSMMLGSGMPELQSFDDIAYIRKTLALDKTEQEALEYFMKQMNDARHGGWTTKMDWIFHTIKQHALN
T1 sequence (P27986 322-694 partner limits assumed): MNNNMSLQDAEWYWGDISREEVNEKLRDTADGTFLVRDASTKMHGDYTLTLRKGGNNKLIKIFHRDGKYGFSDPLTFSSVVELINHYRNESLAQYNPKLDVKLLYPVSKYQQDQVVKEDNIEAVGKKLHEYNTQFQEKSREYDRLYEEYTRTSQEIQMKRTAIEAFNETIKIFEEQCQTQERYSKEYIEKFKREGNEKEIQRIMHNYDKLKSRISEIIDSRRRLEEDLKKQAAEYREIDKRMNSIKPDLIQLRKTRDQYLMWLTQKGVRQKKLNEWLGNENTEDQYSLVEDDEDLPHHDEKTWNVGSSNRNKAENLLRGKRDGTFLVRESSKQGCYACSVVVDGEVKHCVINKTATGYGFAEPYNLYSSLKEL

Take `Cc1c([C@@H](NC(=O)N[C@H]2CC[C@H](C(N)=O)CC2)C(C)C)oc2ccc(F)cc12` (relative stereo) [Compound 42, (1R,4r)-4-(3-((R*)-1-(5-fluoro-3-methylbenzofuran-2-yl)-2-methylpropyl)ureido)cyclohexane-1-carboxamide]: on PI3Kα H1047R, the Kd was not below 0.5 µM.

The molecule `Cc1c([C@@H](NC(=O)Nc2cccc(N3CCC3=O)c2)C(C)C)oc2ccc(F)cc12` [Compound 104] returned an IC50 in experiment [1] (Homo sapiens, T47D, 1 h) of less than 1 µM.

In experiment [1] (timepoint 1 hour), `Cc1c([C@@H](NC(=O)Nc2cnc(NC[C@@H](C)O)nc2)C(C)C)oc2ccc(F)cc12` [Compound 143] yielded an IC50 of less than 1 µM.

As to `Cc1c([C@H](NC(=O)Nc2cnc(N3C[C@H](O)[C@H]3C)nc2)C(F)(F)F)oc2c(F)cc(F)cc12` [Compound 173], the IC50 in experiment [1] (Homo sapiens, T47D, 1 h) is more than 5 µM.

With `Cc1c([C@@H](NC(=O)Nc2cnc(N3C[C@H](O)[C@H]3C)nc2)C(F)(F)F)oc2c(F)cc(F)cc12` [Compound 174], in experiment [1] (Homo sapiens, T47D, 1 h), the concentration for half-maximal inhibition (IC50) was less than 1 µM.

Turning to `Cc1c(C(NC(=O)Nc2ccc(N)nc2)C(F)(F)F)oc2c(F)cc(F)cc12` (centres unmarked) [Compound 181], in experiment [1] (timepoint 1 hour), the IC50 was more than 5 µM.

Molecule `Cc1c(C(NC(=O)Nc2ccc(N)nc2)C(F)(F)F)oc2c(F)cc(F)cc12` (centres unmarked) [Compound 182] showed an IC50 in experiment [1] (timepoint 1 hour) of less than 1 µM.

Take `Cc1c([C@@H](NC(=O)Nc2cnc(NCC(C)(C)O)nc2)C(F)(F)F)oc2c(F)cc(F)cc12` [Compound 183]: in experiment [1] (Homo sapiens, T47D, 1 h), the IC50 was less than 1 µM.

`Cc1c([C@H](NC(=O)Nc2cnc(NCC(C)(C)O)nc2)C(F)(F)F)oc2c(F)cc(F)cc12` [Compound 184] returned an IC50 in experiment [1] (Homo sapiens, T47D, 1 h) of more than 5 µM.

In the case of `Cc1c([C@@H](NC(=O)Nc2cnc(N3CC(C(C)(C)O)C3)nc2)C(F)(F)F)oc2c(F)cc(F)cc12` [Compound 205], the IC50 in experiment [1] (timepoint 1 hour) is less than 1 µM.

In experiment [1] (timepoint 1 hour), `Cc1c([C@H](NC(=O)Nc2cnc(N3CC(C(C)(C)O)C3)nc2)C(F)(F)F)oc2c(F)cc(F)cc12` [Compound 206] yielded an IC50 of more than 5 µM.

Molecule `Cc1c([C@H](NC(=O)Nc2cnc(N3CC[C@@H](O)C3)nc2)C(F)(F)F)oc2c(F)cc(F)cc12` [Compound 207] gave an IC50 in experiment [1] (timepoint 1 hour) of more than 5 µM.

In turn, `Cc1c([C@@H](NC(=O)Nc2cnc(N3CC[C@@H](O)C3)nc2)C(F)(F)F)oc2c(F)cc(F)cc12` [Compound 208] gave an IC50 in experiment [1] (timepoint 1 hour) of less than 1 µM.

In turn, `Cc1c([C@@H](NC(=O)Nc2cnc(N3CC[C@H](O)C3)nc2)C(F)(F)F)oc2c(F)cc(F)cc12` [Compound 209] came in with an IC50 in experiment [1] (timepoint 1 hour) of less than 1 µM.

In the case of `Cc1c([C@H](NC(=O)Nc2cnc(N3CC[C@H](O)C3)nc2)C(F)(F)F)oc2c(F)cc(F)cc12` [Compound 210], the IC50 in experiment [1] (timepoint 1 hour) is more than 5 µM.

The molecule `Cc1c([C@@H](NC(=O)Nc2cnc(N3CC(C(N)=O)C3)nc2)C(F)(F)F)oc2c(F)cc(F)cc12` [Compound 211] returned an IC50 in experiment [1] (timepoint 1 hour) of less than 1 µM.

Regarding `Cc1c([C@H](NC(=O)Nc2cnc(N3CC(C(N)=O)C3)nc2)C(F)(F)F)oc2c(F)cc(F)cc12` [Compound 212], the IC50 in experiment [1] (timepoint 1 hour) is more than 5 µM.
